Test results: publication PMC11947619, “Molecular mechanism of Mad2 conformational conversion promoted by the Mad2‐interaction motif of Cdc20” (Protein Science : A Publication of the Protein Society, 2025)
Residues, ends and D or L forms follow the SMILES beside them.

Target: T1, O‐Mad2^WT (Homo sapiens, UniProt Q13257)
T1 construct: MD simulations on the full‐length O‐Mad2:C‐Mad2:Mad1^MIM complex; His6-DoubleStrep-TEV (N); made in house
Assay: NMR: conversion of monomeric wild-type O-Mad2^WT
Type: biochemical
Conditions: O-Mad2^WT 300 μM, two-fold molar excess peptide, HSQC, 25°C
Protocol: FIGURE 6 O‐Mad2 retains its dynamic and structural properties in the O‐Mad2:C‐Mad2 dimer. (a, c) HSQC spectra of 300 μM wild‐type O‐Mad2^WT (a, light blue) and O‐Mad2^WT:(C‐Mad2^WT:Mad1^MIM) (c, blue). The schematics show the conformation of Mad2 as indicated by the tryptophan side‐chain resonances and their oligomeric states as determined by SEC‐MALS (insets). The SEC peaks are labeled with their molecular masses (kDa), where the theoretical molecular masses for monomeric and dimeric Mad2 are 23.5 and 47.0 kDa, respectively. For the dimeric samples, only one of the monomers was isotopically labeled and observable by NMR. Distinct chemical shift differences were also observed for Gly50 in O‐Mad2 and C‐Mad2, and its resonances are marked in the spectra. Cdc20^MIM‐123‐152 was added at two‐fold molar excess to O‐Mad2^WT (a), and O‐Mad2^WT:(C‐Mad2^WT:Mad1^MIM) (c). (b, d) This generated C‐Mad2^WT‐Cdc20^MIM (b, brown), and (C‐Mad2^WT:Cdc20^MIM):(C‐Mad2^WT:Mad1^MIM) (d, yellow), respectively. Their spectra are overlaid with that of C‐Mad2^L13A/R133A:Cdc20^MIM (red) for comparison. (e) Cα RMSF were determined from MD simulations at 300 K for monomeric O‐Mad2 (blue line) and O‐Mad2 in a O‐Mad2:C‐Mad2:Mad1^MIM dimer (brown dotted line). […]
For wild‐type Mad2, the protein was expressed as O‐Mad2^WT using the conditions described above. […]

T1 sequence (Q13257 whole entry): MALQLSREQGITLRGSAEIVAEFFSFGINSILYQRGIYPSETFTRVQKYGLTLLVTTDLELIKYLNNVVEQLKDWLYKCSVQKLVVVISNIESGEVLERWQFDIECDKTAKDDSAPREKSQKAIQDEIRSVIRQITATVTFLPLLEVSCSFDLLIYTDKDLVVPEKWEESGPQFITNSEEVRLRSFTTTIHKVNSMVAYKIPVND

`CC[C@H](C)[C@H](NC(=O)[C@H](CCCCN)NC(=O)[C@H](C)NC(=O)[C@H](CCC(=O)O)NC(=O)[C@H](CCC(=O)O)NC(=O)[C@@H](NC(=O)[C@H](CC(=O)O)NC(=O)[C@@H](N)Cc1ccccc1)C(C)C)C(=O)N[C@@H](CC(C)C)C(=O)N[C@@H](CCCNC(=N)N)C(=O)N[C@@H](CC(C)C)C(=O)N[C@@H](CO)C(=O)NCC(=O)N[C@@H](CCCCN)C(=O)N1CCC[C@H]1C(=O)N[C@@H](CCC(N)=O)C(=O)N[C@@H](CC(N)=O)C(=O)N[C@@H](C)C(=O)N1CCC[C@H]1C(=O)N[C@@H](CCC(=O)O)C(=O)NCC(=O)N[C@@H](Cc1ccc(O)cc1)C(=O)N[C@@H](CCC(N)=O)C(=O)N[C@@H](CC(N)=O)C(=O)N[C@@H](CCCNC(=N)N)C(=O)N[C@@H](CC(C)C)C(=O)N[C@@H](CCCCN)C(=O)N[C@H](C(=O)N[C@@H](CC(C)C)C(=O)N[C@@H](Cc1ccc(O)cc1)C(=O)O)C(C)C` [Cdc20^MIM‐123‐152] (H-FDVEEAKILRLSGKPQNAPEGYQNRLKVLY-OH; N-terminus and C-terminus assumed) was tested. Which “conversion of O-Mad2^WT, in words” value did it give?
The value was “converted to C‐Mad2 upon binding Cdc20^MIM”.
